Assay results taken from PubChem BioAssay AID1259407 (Chemical Carcinogenesis Research Information System (CCRIS), 2018).
The source made the active and inactive calls. No rule for the calls is given here.

Tested on: CCRIS mutagenicity, Ames/micronucleus/aberration tests
Experiment: CCRIS mutagenicity studies
[1] = Test System: AMES SALMONELLA TYPHIMURIUM, Strain/Indicator: TA98, Metabolic Activation: NONE, Method: PREINCUBATION
[2] = Test System: AMES SALMONELLA TYPHIMURIUM, Strain/Indicator: TA98, Metabolic Activation: NONE, Method: STANDARD PLATE
[3] = Test System: AMES SALMONELLA TYPHIMURIUM, Strain/Indicator: TA100, Metabolic Activation: NONE, Method: PREINCUBATION
[4] = Test System: AMES SALMONELLA TYPHIMURIUM, Strain/Indicator: TA100, Metabolic Activation: NONE, Method: STANDARD PLATE
[5] = Test System: AMES SALMONELLA TYPHIMURIUM, Strain/Indicator: TA102, Metabolic Activation: NONE, Method: STANDARD PLATE

O=[N+]([O-])c1ccc2c(c1)Oc1ccccc1O2
mutagenic call (Test System: AMES SALMONELLA TYPHIMURIUM, Strain/Indicator: TA98(1,8-DNP6), Metabolic Activation: NONE, Method: PREINCUBATION): active; positive
mutagenic call (Test System: AMES SALMONELLA TYPHIMURIUM, Strain/Indicator: TA98(1,8-DNP6), Metabolic Activation: NONE, Method: SUSPENSION): active; positive
mutagenic call (Test System: AMES SALMONELLA TYPHIMURIUM, Strain/Indicator: TA98(1,8-DNP6), Metabolic Activation: RAT, LIVER, S-9, PCB (5%), Method: PREINCUBATION): active; positive
mutagenic call (Test System: AMES SALMONELLA TYPHIMURIUM, Strain/Indicator: TA98(NR), Metabolic Activation: NONE, Method: SUSPENSION): inactive; negative
mutagenic call (Test System: AMES SALMONELLA TYPHIMURIUM, Strain/Indicator: TA98(NR), Metabolic Activation: RAT, LIVER, S-9 (15%), Method: PREINCUBATION): active; positive
mutagenic call (Test System: AMES SALMONELLA TYPHIMURIUM, Strain/Indicator: TA98(NR), Metabolic Activation: RAT, LIVER, S-9, 3-METHYLCHOLANTHRENE (15%), Method: PREINCUBATION): active; positive
mutagenic call (Test System: AMES SALMONELLA TYPHIMURIUM, Strain/Indicator: TA98(NR), Metabolic Activation: RAT, LIVER, S-9, BETA-NAPHTHOFLAVONE (15%), Method: PREINCUBATION): active; positive
mutagenic call (Test System: AMES SALMONELLA TYPHIMURIUM, Strain/Indicator: TA98(NR), Metabolic Activation: RAT, LIVER, S-9, PCB (5 OR 15%), Method: PREINCUBATION): active; positive
mutagenic call (Test System: AMES SALMONELLA TYPHIMURIUM, Strain/Indicator: TA98(NR), Metabolic Activation: RAT, LIVER, S-9, PHENOBARBITAL (15%), Method: PREINCUBATION): active; positive
mutagenic call [1]: active; positive
mutagenic call [2]: active; positive
mutagenic call (Test System: AMES SALMONELLA TYPHIMURIUM, Strain/Indicator: TA98, Metabolic Activation: NONE, Method: SUSPENSION): active; positive
mutagenic call (Test System: AMES SALMONELLA TYPHIMURIUM, Strain/Indicator: TA98, Metabolic Activation: RAT, LIVER, S-9, AROCLOR, Method: STANDARD PLATE): active; positive
mutagenic call (Test System: AMES SALMONELLA TYPHIMURIUM, Strain/Indicator: TA98, Metabolic Activation: RAT, LIVER, S-9, PCB (5%), Method: PREINCUBATION): active; positive
mutagenic call (Test System: AMES SALMONELLA TYPHIMURIUM, Strain/Indicator: TA98, Metabolic Activation: RAT, LIVER, S-9, PCB, Method: SUSPENSION): active; positive
mutagenic call [3]: inactive; negative
mutagenic call [4]: active; positive
mutagenic call (Test System: AMES SALMONELLA TYPHIMURIUM, Strain/Indicator: TA100, Metabolic Activation: NONE, Method: SUSPENSION): inactive; negative
mutagenic call (Test System: AMES SALMONELLA TYPHIMURIUM, Strain/Indicator: TA100, Metabolic Activation: RAT, LIVER, S-9, AROCLOR, Method: STANDARD PLATE): active; positive
mutagenic call (Test System: AMES SALMONELLA TYPHIMURIUM, Strain/Indicator: TA100, Metabolic Activation: RAT, LIVER, S-9, PCB (5%), Method: PREINCUBATION): inactive; negative
mutagenic call (Test System: AMES SALMONELLA TYPHIMURIUM, Strain/Indicator: TA100, Metabolic Activation: RAT, LIVER, S-9, PCB, Method: SUSPENSION): inactive; negative

Cc1ccc2nc3ccccc3c(N)c2c1
mutagenic call (Test System: AMES SALMONELLA TYPHIMURIUM, Strain/Indicator: TA1537, Metabolic Activation: NONE, Method: PREINCUBATION): active; positive

Cc1cccc(NO)c1
mutagenic call (Test System: AMES SALMONELLA TYPHIMURIUM, Strain/Indicator: TA98, Metabolic Activation: RAT, LIVER, S-9, AROCLOR 1254, Method: PREINCUBATION): inactive; negative
mutagenic call (Test System: AMES SALMONELLA TYPHIMURIUM, Strain/Indicator: TA100, Metabolic Activation: RAT, LIVER, S-9, PCB, Method: PREINCUBATION): active; positive

O=C1c2ccccc2C(=O)N1SC1CCCCC1
mutagenic call (Test System: AMES SALMONELLA TYPHIMURIUM, Strain/Indicator: TA97, Metabolic Activation: NONE, Method: STANDARD PLATE): inactive; negative
mutagenic call (Test System: AMES SALMONELLA TYPHIMURIUM, Strain/Indicator: TA97, Metabolic Activation: RAT LIVER S-9, DELOR 103 (4% OR 10%), Method: STANDARD PLATE): inactive; negative
mutagenic call [2]: inactive; negative
mutagenic call (Test System: AMES SALMONELLA TYPHIMURIUM, Strain/Indicator: TA98, Metabolic Activation: RAT LIVER S-9, DELOR 103 (4% OR 10%), Method: STANDARD PLATE): inactive; negative
mutagenic call [4]: inactive; negative
mutagenic call (Test System: AMES SALMONELLA TYPHIMURIUM, Strain/Indicator: TA100, Metabolic Activation: RAT LIVER S-9, DELOR 103 (4% OR 10%), Method: STANDARD PLATE): inactive; negative
mutagenic call [5]: inactive; negative
mutagenic call (Test System: AMES SALMONELLA TYPHIMURIUM, Strain/Indicator: TA102, Metabolic Activation: RAT LIVER S-9, DELOR 103 (4% OR 10%), Method: STANDARD PLATE): inactive; negative

C=C(C)C(=O)OCCO
mutagenic call (Test System: AMES SALMONELLA TYPHIMURIUM, Strain/Indicator: TA97A, Metabolic Activation: NONE, Method: STANDARD PLATE): inactive; negative
mutagenic call [2]: inactive; negative
mutagenic call (Test System: AMES SALMONELLA TYPHIMURIUM, Strain/Indicator: TA98, Metabolic Activation: RAT, LIVER, S-9, AROCLOR 1254, Method: STANDARD PLATE): inactive; negative
mutagenic call (Test System: AMES SALMONELLA TYPHIMURIUM, Strain/Indicator: TA98, Metabolic Activation: RAT, LIVER, S-9, SODIUM PHENOBARBITAL, Method: STANDARD PLATE): inactive; negative
mutagenic call [4]: inactive; negative
mutagenic call (Test System: AMES SALMONELLA TYPHIMURIUM, Strain/Indicator: TA100, Metabolic Activation: RAT, LIVER, S-9, AROCLOR 1254, Method: STANDARD PLATE): inactive; negative
mutagenic call (Test System: AMES SALMONELLA TYPHIMURIUM, Strain/Indicator: TA100, Metabolic Activation: RAT, LIVER, S-9, SODIUM PHENOBARBITAL, Method: STANDARD PLATE): inactive; negative
mutagenic call [5]: inactive; negative
mutagenic call (Test System: AMES SALMONELLA TYPHIMURIUM, Strain/Indicator: TA104, Metabolic Activation: NONE, Method: STANDARD PLATE): inactive; negative
mutagenic call (Test System: AMES SALMONELLA TYPHIMURIUM, Strain/Indicator: TA1535, Metabolic Activation: NONE, Method: STANDARD PLATE): inactive; negative
mutagenic call (Test System: AMES SALMONELLA TYPHIMURIUM, Strain/Indicator: TA1535, Metabolic Activation: RAT, LIVER, S-9, AROCLOR 1254, Method: STANDARD PLATE): inactive; negative
mutagenic call (Test System: AMES SALMONELLA TYPHIMURIUM, Strain/Indicator: TA1535, Metabolic Activation: RAT, LIVER, S-9, SODIUM PHENOBARBITAL, Method: STANDARD PLATE): inactive; negative
mutagenic call (Test System: AMES SALMONELLA TYPHIMURIUM, Strain/Indicator: TA1537, Metabolic Activation: NONE, Method: STANDARD PLATE): inactive; negative
mutagenic call (Test System: AMES SALMONELLA TYPHIMURIUM, Strain/Indicator: TA1537, Metabolic Activation: RAT, LIVER, S-9, AROCLOR 1254, Method: STANDARD PLATE): inactive; negative
mutagenic call (Test System: AMES SALMONELLA TYPHIMURIUM, Strain/Indicator: TA1537, Metabolic Activation: RAT, LIVER, S-9, SODIUM PHENOBARBITAL, Method: STANDARD PLATE): inactive; negative
mutagenic call (Test System: AMES SALMONELLA TYPHIMURIUM, Strain/Indicator: TA1538, Metabolic Activation: NONE, Method: STANDARD PLATE): inactive; negative
mutagenic call (Test System: AMES SALMONELLA TYPHIMURIUM, Strain/Indicator: TA1538, Metabolic Activation: RAT, LIVER, S-9, AROCLOR 1254, Method: STANDARD PLATE): inactive; negative
mutagenic call (Test System: AMES SALMONELLA TYPHIMURIUM, Strain/Indicator: TA1538, Metabolic Activation: RAT, LIVER, S-9, SODIUM PHENOBARBITAL, Method: STANDARD PLATE): inactive; negative
mutagenic call (Test System: CHINESE HAMSTER V-79, Strain/Indicator: V79 (HPRT)/6-THIOGUANINE, Metabolic Activation: NONE): inactive; negative

COC(=O)C(=Cc1ccc([N+](=O)[O-])o1)[N+](=O)[O-]
mutagenic call [1]: active; positive

O[C@@H]1C=C2c3ccccc3-c3cccc(c32)[C@H]1O
mutagenic call (Test System: AMES SALMONELLA TYPHIMURIUM, Strain/Indicator: TM677, Metabolic Activation: NONE, Method: PREINCUBATION): active; positive
mutagenic call (Test System: AMES SALMONELLA TYPHIMURIUM, Strain/Indicator: TM677, Metabolic Activation: RAT, LIVER, POSTMITOCHONDRIAL SUPERNATANT, AROCLOR 1254, Method: PREINCUBATION): active; positive

Cc1cc2ccccc2c2ccc3c(c12)[C@H]1O[C@H]1[C@@H](O)[C@@H]3O
mutagenic call [3]: active; positive
